What all share (format): biochemical
The test system of test [1] is PLCβ3. Put plainly: Gβ1γ2-dependent activation of purified PLCβ3. Conditions: Table 4; read-out: PLC β3 IC50. The procedure: (§1) Purified PLCβ2 (0.25 ng) was assayed in the presence (▴) or absence (▪) of 100 nM purified Gβ1γ2. […] Assays contained 10 ng of purified p101/p110 PI3Kγ heterodimer with or without 100 nM purified Gβ1γ2. Left panel: (▴) 100 nM Gβ1γ2 or (▪) no βγ. […] M119 or M201 and 25 nM purified GRK2 were added simultaneously to 250 nM biotinylated Gβ1γ2 (bGβ1γ2) immobilized on streptavidin agarose. GRK2 was detected with antibody to GRK2. Data are representative (mean ±SEM, except D) repeated at least three times each. […] 30 nM bGβ1γ2 was incubated with either 30 nM PLCβ2 or PLCβ3 in the presence or absence of M119 or M201 for 16 h at 4° C. before precipitation with avidin agarose and detection with PLCβ2,or Gβ antibodies. […] Same as 4E with PLCβ3.
(§2) The ability of NSC119910 analogs to selectively modulate activation PLC-β2 and -β3 was analyzed. In this assay, PLC-β2 and PLC-β3 were purified and PLC enzymatic activity was measured in the presence or absence of purified βy and in the presence or absence of analog.
(§3) Nevertheless, M119 and M201 were tested in in vitro reconstitution assays of Gβγ-dependent activation of PLCβ2, PLCβ3 and PI3Kγ and binding to GRK2. […] These are only two of multiple diverse compounds identified, indicating potential for multiple modes of Gβγ-dependent target modulation by these small molecules.

Test [2] has as its system PI3Kγ. Description: Gβ1γ2-dependent activation of purified p101/p110 PI3Kγ. The settings on record: Table 5; read-out: PI3Kγ IC50. The procedure: as §1, §3
Test [3] deals with PLCβ2. Put plainly: Gβ1γ2-dependent activation of purified PLCβ2. Conditions: Table 3; read-out: PLCβ2 IC50. The protocol: as §1, §2, §3

For the compound `Nc1ccc(Nc2cc(S(=O)(=O)O)c(N)c3c2C(=O)c2ccccc2C3=O)cc1` [drawing 59], the IC50 in test [1] stood at 12 µM. Regarding `Nc1c(S(=O)(=O)O)cc(Nc2cccc(S(N)(=O)=O)c2)c2c1C(=O)c1ccccc1C2=O` [drawing 58], the IC50 in test [1] was 58 µM.

For the compound `Nc1ccc(Nc2cc(S(=O)(=O)O)c(N)c3c2C(=O)c2ccccc2C3=O)cc1` [drawing 63], the IC50 in test [2] was found to be 2.5 µM. As to `Nc1cccc(Nc2cc(S(=O)(=O)O)c(N)c3c2C(=O)c2ccccc2C3=O)c1` [drawing 60], in test [1], the IC50 was 15 µM.

For the compound `Nc1ccc(Nc2cc(S(=O)(=O)O)c(N)c3c2C(=O)c2ccccc2C3=O)cc1` [drawing 55], the IC50 in test [3] stood at 75 µM. For the compound `Nc1ccc(-c2ccc(Nc3cc(S(=O)(=O)O)c(N)c4c3C(=O)c3ccccc3C4=O)cc2)c(S(=O)(=O)O)c1` [drawing 61], the IC50 in test [1] amounted to 62 µM.

Turning to `Nc1cccc(Nc2cc(S(=O)(=O)O)c(N)c3c2C(=O)c2ccccc2C3=O)c1` [drawing 56], the IC50 in test [3] came out at 14 µM.

Values taken from US8975259B2, “Compositions and methods for inhibiting G protein signaling” (University of Rochester, priority 2007, dated 2015).
